Measurements as given in patent US7687511B2, “Substituted dihydropyrimidines, dihydropyrimidones and dihydropyrimidinethiones as calcium channel blockers” (priority 2002, dated 2010).

SMILES | melting point [°C]
CCCCCCCCCCCCCCCc1cccc(OC)c1C1NC(=O)NC(C)=C1C(=O)OCC (stereo not drawn) [PPK-22, 5-ethoxycarbonyl-4-(2-methoxy-6-pentadecylphenyl)-6-methyl-3,4-dihydropyrimidin-2(1H)-one] | 91 to 93
CCCCCCCCCCCCCCCc1cccc(OCC)c1C1NC(=O)NC(C)=C1C(=O)OC (stereo not drawn) [PPK-23, 5-methoxycarbonyl-4-(2-ethoxy-6-pentadecylphenyl)-6-methyl-3,4-dihydropyrimidin-2(1H)-one] | 127 to 129
CCCCCCCCCCCCCCCc1cccc(OC)c1C1NC(=O)NC(C)=C1C(=O)OC (stereo not drawn) [PPK-24, 5-methoxycarbonyl-4-(2-methoxy-6-pentadecylphenyl)-6-methyl-3,4-dihydropyrimidin-2(1H)-one] | 101 to 102
CCCCCCCCCCCCCCCc1cccc(OCC)c1C1NC(=O)NC(C)=C1C(=O)OCC (stereo not drawn) [PPK-25, 5-ethoxycarbonyl-4-(2-ethoxy-6-pentadecylphenyl)-6-methyl-3,4-dihydropyrimidin-2(1H)-one] | 99 to 100
CCCCCCCCCCCCCCCc1cccc(OC)c1C1C(C(=O)OC(C)C)=C(C)NC(=O)N1C(=O)OCC (stereo not drawn) [PPK-32, 3,6-dihydro-4-methyl-6-[2-methoxy-6-pentadecylphenyl]-2-oxo-1,5-(2H)-pyrimidinedicarboxylic acid 1-ethyl 5-isopropyl diester] | 100
CCCCCCCCCCCCCCCc1cccc(OC(C)C)c1C1C(C(=O)OC)=C(C)NC(=O)N1C(=O)OCC (stereo not drawn) [PPK-36, 3,6-dihydro-4-methyl-6-[2-isopropoxy-6-pentadecylphenyl]-2-oxo-1,5-(2H)-pyrimidinedicarboxylic acid 1-ethyl 5-methyl diester] | 120 to 121
CCCCCCCCCCCCCCCc1cccc(OC(C)C)c1C1C(C(=O)OC(C)C)=C(C)NC(=O)N1C(=O)OCC (stereo not drawn) [PPK-38, 3,6-dihydro-4-methyl-6-[2-isopropoxy-6-pentadecylphenyl]-2-oxo-1,5-(2H)-pyrimidinedicarboxylic acid 1-ethyl 5-isopropyl diester] | 88 to 90

Second part, the molecule after the results:

melting point [°C] | SMILES
121 to 122 | CCCCCCCCCCCCCCCc1cccc(OC)c1C1C(C(=O)OC)=C(C)NC(=O)N1C(=O)OCC (stereo not drawn) [PPK-30, 3,6-dihydro-4-methyl-6-[2-methoxy-6-pentadecylphenyl]-2-oxo-1,5-(2H)-pyrimidinedicarboxylic acid 1-ethyl 5-methyl diester]
109 to 110 | CCCCCCCCCCCCCCCc1cccc(OC)c1C1C(C(=O)OCC)=C(C)NC(=O)N1C(=O)OCC (stereo not drawn) [PPK-31, 3,6-dihydro-4-methyl-6-[2-methoxy-6-pentadecylphenyl]-2-oxo-1,5-(2H)-pyrimidinedicarboxylic acid bis(ethyl ester)]
103 | CCCCCCCCCCCCCCCc1cccc(OCC)c1C1C(C(=O)OC)=C(C)NC(=O)N1C(=O)OCC (stereo not drawn) [PPK-33, 3,6-dihydro-4-methyl-6-[2-ethoxy-6-pentadecylphenyl]-2-oxo-1,5-(2H)-pyrimidinedicarboxylic acid 1-ethyl 5-methyl diester]
112 | CCCCCCCCCCCCCCCc1cccc(OCC)c1C1C(C(=O)OCC)=C(C)NC(=O)N1C(=O)OCC (stereo not drawn) [PPK-34, 3,6-dihydro-4-methyl-6-[2-ethoxy-6-pentadecylphenyl]-2-oxo-1,5-(2H)-pyrimidinedicarboxylic acid 1,5-diethyl diester]
90 to 92 | CCCCCCCCCCCCCCCc1cccc(OC(C)C)c1C1C(C(=O)OCC)=C(C)NC(=O)N1C(=O)OCC (stereo not drawn) [PPK-37, 3,6-dihydro-4-methyl-6-[2-isopropoxy-6-pentadecylphenyl]-2-oxo-1,5-(2H)-pyrimidinedicarboxylic acid 1,5-diethyl diester]
